# Data: patent US11168087B2, “Substituted imidazo[1,2-b]pyridazines, substituted imidazo[1,5-b]pyridazines, related compounds, and their use in the treatment of medical disorders” (BIAL—R&D Investments, S.A., priority 2016, dated 2021)
# Molecular target: T1, glucocerebrosidase (Gcase) (Homo sapiens, UniProt P04062)
# T1 construct: micellar solution containing 10 nM GCase and 100 nM saposin C
# T1 sequence (P04062 40-536): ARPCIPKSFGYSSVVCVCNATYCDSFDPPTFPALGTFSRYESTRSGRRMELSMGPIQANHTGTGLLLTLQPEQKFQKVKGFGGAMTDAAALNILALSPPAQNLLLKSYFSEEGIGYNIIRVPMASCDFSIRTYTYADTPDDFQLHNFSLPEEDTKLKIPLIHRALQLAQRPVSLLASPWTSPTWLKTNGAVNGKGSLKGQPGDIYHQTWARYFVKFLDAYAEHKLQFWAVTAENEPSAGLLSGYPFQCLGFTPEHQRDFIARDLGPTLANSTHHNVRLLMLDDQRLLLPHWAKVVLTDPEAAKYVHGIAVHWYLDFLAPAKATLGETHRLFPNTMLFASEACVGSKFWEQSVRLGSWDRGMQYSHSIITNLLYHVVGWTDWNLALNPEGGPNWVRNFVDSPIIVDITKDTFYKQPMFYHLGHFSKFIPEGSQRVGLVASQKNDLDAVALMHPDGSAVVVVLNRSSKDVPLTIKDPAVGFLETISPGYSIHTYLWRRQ
# Assay: Glucocerebrosidase (Gcase) activation assay, 4-methylumbelliferyl-beta-D-glucopyranoside substrate, with saposin C
# Type: biochemical
# Conditions: 0.25 h; for activation at 0.1 µM: read-out: Percent Gcase Activation 0.1 μM Test Compound; for activation at 1 µM: read-out: Percent Gcase Activation 1 μM Test Compound
# Procedure: The ability of exemplary compounds to activate glucocerebrosidase (Gcase) was measured.
# A 484 μL aliquot of a 1.0 mg/mL solution of phosphatidylserine (PS) (Sigma P7769) in chloroform was evaporated under a stream of nitrogen for 1 hour. The lipid film was dissolved over 4 minutes of vigorous vortexing in 40 mL of 176 mM K2HPO4/50 mM citric acid (pH 4.7) containing 7.5 μL of triton X-100, resulting in a mixed micellar preparation with a composition of 0.32 mM triton and 0.37 mol % PS. 4-Methylumbelliferyl-beta-D-glucopyranoside (ACROS-337025000) was dissolved in the micellar solution to a final concentration of 2 mM for use as the reaction substrate.
# Test compounds were diluted to the desired concentrations with dimethylsulfoxide (DMSO) from 10 mM stocks, and 0.41 μL of the DMSO compound mixture was added to 100 μL of micellar solution containing 10 nM GCase and 100 nM saposin C (Enzo ALX-201-262-C050). Pre-incubation was allowed to occur for 30 minutes at room temperature, after which the reaction was initiated by combining 25 μL of substrate solution with 25 μL of compound/GCase/saposin mixture. The reaction proceeded for 15 minutes at room temperature and was stopped by adding 150 μL of 1M glycine, pH 12.5. The endpoint of the reaction was monitored by measuring fluorescence intensity (excitation: 365 nm; emission: 440 nm) on a SpectraMax i3 instrument (Molecular Devices). Test compounds were screened at 1.0 and 0.1 μM final concentration, and subsequent 8-point dose response curves were obtained using 3-fold dilutions from a maximum final concentration of 5 μM.
# The symbol “+” indicates less than 5% Gcase activation; the symbol “++” indicates Gcase activation in the range of 5% up to 20%; and the symbol “+++” indicates Gcase activation greater than 20%.
activation at 0.1 µM,activation at 1 µM,SMILES
< 5%,5 to 20%,Cc1cc(-c2cccnc2)nc2c(C(=O)NC(C3CC3)C(F)(F)F)nsc12 (centres unmarked)
> 20%,> 20%,"Cc1cc(C)c2snc(C(=O)Nc3ccc4c(c3)CCC4)c2n1 [N-(2,3-Dihydro-1H-inden-5-yl)-5,7-dimethylisothiazolo[4,5-b]pyridine-3-carboxamide]"
5 to 20%,> 20%,Cc1cc(-c2cccc(F)c2)nn2c(C(=O)NC(C)C(F)(F)F)ncc12 (centres unmarked)
5 to 20%,> 20%,Cc1cc(-c2cccc3ncoc23)nn2c(C(=O)NC(C3CC3)C(F)(F)F)cnc12 (centres unmarked)
> 20%,> 20%,COc1cccc(-c2cc(C)c3ncc(C(=O)NC(C4CC4)C(F)(F)F)n3n2)n1 (centres unmarked)
5 to 20%,> 20%,Cc1cc(-c2ccns2)nn2c(C(=O)NC(C3CC3)C(F)(F)F)cnc12 (centres unmarked)
5 to 20%,> 20%,"Cc1cc(-c2c(F)cccc2C#N)nn2c(C(=O)N[C@@H](C)C(F)(F)F)cnc12 [(S)-6-(2-Cyano-6-fluorophenyl)-8-methyl-N-(1,1,1-trifluoropropan-2-yl)imidazo[1,2-b]pyridazine-3-carboxamide]"
5 to 20%,> 20%,Cc1cc(N2CCN(C(C)C)C2=O)nn2c(C(=O)NC(C3CC3)C(F)(F)F)cnc12 (centres unmarked)
< 5%,5 to 20%,Cc1cc(-c2ccc(F)cc2C#N)nn2c(C(=O)N[C@H](C)C(F)(F)F)cnc12
> 20%,> 20%,Cc1cc(-c2ccc(F)cc2C#N)nn2c(C(=O)N[C@@H](C3CC3)C(F)(F)F)cnc12
5 to 20%,> 20%,"Cc1cc(-c2cc(F)ccc2C#N)nn2c(C(=O)N[C@@H](C)C(F)(F)F)cnc12 [(S)-6-(2-Cyano-5-fluorophenyl)-8-methyl-N-(1,1,1-trifluoropropan-2-yl)imidazo[1,2-b]pyridazine-3-carboxamide]"
5 to 20%,> 20%,Cc1cc(-c2cncc(F)c2)nn2c(C(=O)NC(C3CC3)C(F)(F)F)cnc12 (centres unmarked)
5 to 20%,> 20%,C#Cc1ccc(NC(=O)c2cnc3c(C)cc(C)nn23)cc1
< 5%,> 20%,C#CC(C)(C)NC(=O)c1cnc2c(C)cc(-c3ccns3)nn12
< 5%,> 20%,Cc1cc(C)c2ncc(C(=O)NC(C3CC3)C(F)(F)F)n2n1 (centres unmarked)
5 to 20%,> 20%,Cc1cc(C)c2ncc(C(=O)NC3CCCc4ccccc43)n2n1 (centres unmarked)
5 to 20%,> 20%,"Cc1cc(-c2cc(F)ccc2C#N)nn2c(C(=O)N[C@@H](C)C3CC3)cnc12 [(S)-6-(2-Cyano-5-fluorophenyl)-N-(1-cyclopropylethyl)-8-methylimidazo[1,2-b]pyridazine-3-carboxamide]"
> 20%,> 20%,Cc1cc(-c2cccc(F)c2)nn2c(C(=O)NC(C)(C)C3CC3)cnc12
< 5%,5 to 20%,Cc1cc(C)c2ncc(C(=O)N[C@@H](C)C3CC3)n2n1
5 to 20%,> 20%,Cc1cc(-c2ccc3c(c2)ncn3C)nn2c(C(=O)N[C@@H](C3CC3)C(F)(F)F)cnc12
> 20%,> 20%,Cc1cc(-c2ccc3ocnc3c2)nn2c(C(=O)NC(C)C(F)(F)F)cnc12 (centres unmarked)
5 to 20%,> 20%,"Cc1cc(C)c2occ(C(=O)Nc3ccc4c(c3)CCC4)c2n1 [N-(2,3-Dihydro-1H-inden-5-yl)-5,7-dimethylfuro[3,2-b]pyridine-3-carboxamide]"
5 to 20%,> 20%,Cc1cc(-c2ccc(F)cc2C#N)nn2c(C(=O)N[C@H](C3CC3)C(F)(F)F)cnc12
> 20%,> 20%,Cc1cc(N2CCCC(F)(F)C2)nn2c(C(=O)N[C@H](C3CC3)C(F)(F)F)cnc12
< 5%,5 to 20%,Cc1cc(-c2cccc3ocnc23)nc2c(C(=O)NC(C3CC3)C(F)(F)F)nsc12 (centres unmarked)

activation at 0.1 µM,activation at 1 µM,SMILES
> 20%,> 20%,Cc1cc(-c2ccc3ocnc3c2)nn2c(C(=O)N[C@H](C3CC3)C(F)(F)F)cnc12
> 20%,> 20%,Cc1cc(-c2cccc(C(N)=O)c2)nc2c(C(=O)NC(C3CC3)C(F)(F)F)csc12 (centres unmarked)
> 20%,> 20%,Cc1cc(-c2cccnc2)nc2c(C(=O)NC(C)C3CC3)csc12 (centres unmarked)
5 to 20%,> 20%,Cc1cc(Cl)nn2c(C(=O)Nc3ccc4c(c3)CCC4)cnc12
5 to 20%,> 20%,"CCCCCO[C@H]1CC[C@H](NC(=O)c2noc3c(C)cc(C)nc23)CC1 [5,7-Dimethyl-N-((1R,4R)-4-(pentyloxy)cyclohexyl)isoxazolo[4,5-b]pyridine-3-carboxamide]"
< 5%,5 to 20%,COc1cccc(-c2cc(C)c3snc(C(=O)N[C@@H](C)C4CC4)c3n2)n1
5 to 20%,> 20%,Cc1cc(-c2ccns2)nn2c(C(=O)NC(C)(C)C3CC3)cnc12
5 to 20%,> 20%,CCCCCCOC1CCC(NC(=O)c2cnc3c(C)cc(Cl)nn23)CC1 (centres unmarked)
5 to 20%,> 20%,Cc1cc(-c2ccc(F)cc2)nn2c(C(=O)NC(C)C(F)(F)F)ncc12 (centres unmarked)
5 to 20%,> 20%,"Cc1cc(-c2cc(C)c3cnc(C(=O)N[C@@H](C4CC4)C(F)(F)F)n3n2)sn1 [(S)—N-(1-Cyclopropyl-2,2,2-trifluoroethyl)-4-methyl-2-(3-methylisothiazol-5-yl)imidazo[1,5-b]pyridazine-7-carboxamide]"
5 to 20%,> 20%,Cc1nc2cc(-c3cc(C)c4ncc(C(=O)NC(C)C(F)(F)F)n4n3)ccc2o1 (centres unmarked)
< 5%,> 20%,CCC(NC(=O)c1cnc2c(C)cc(C)nn12)c1ccccc1 (centres unmarked)
> 20%,> 20%,Cc1cc(-c2sccc2C#N)nn2c(C(=O)N[C@H](C3CC3)C(F)(F)F)cnc12
< 5%,> 20%,Cc1cc(-c2ccc(F)cc2C#N)nn2c(C(=O)N[C@H](C)C3CC3)cnc12
5 to 20%,> 20%,Cc1cc(C)c2cnc(C(=O)NC3CCCc4ccccc43)n2n1 (centres unmarked)
< 5%,> 20%,Cc1cncc(-c2cc(C)c3ncc(C(=O)N[C@@H](C4CC4)C(F)(F)F)n3n2)c1
5 to 20%,> 20%,Cc1cc(-c2ccc(F)cc2C#N)nn2c(C(=O)N[C@@H](C)C3CC3)cnc12
< 5%,5 to 20%,Cc1cc(C)c2cnc(C(=O)N[C@@H](C)C3CC3)n2n1
< 5%,> 20%,"Cc1ccc(-c2cc(C)c3ncc(C(=O)N[C@@H](C4CC4)C(F)(F)F)n3n2)cn1 [(S)-6-(6-Methylpyridin-3-yl)-N-(1-cyclopropyl-2,2,2-trifluoroethyl)-8-methylimidazo[1,2-b]pyridazine-3-carboxamide]"
5 to 20%,5 to 20%,C#Cc1ccc(NC(=O)c2cnc3ccc(Cl)nn23)cc1
5 to 20%,> 20%,"CCCCCO[C@H]1CC[C@H](NC(=O)c2coc3c(C)cc(C)nc23)CC1 [5,7-Dimethyl-N-((1R,4R)-4-(pentyloxy)cyclohexyl)furo[3,2-b]pyridine-3-carboxamide]"
5 to 20%,> 20%,COc1cncc(-c2cc(C)c3ncc(C(=O)N[C@@H](C4CC4)C(F)(F)F)n3n2)c1
> 20%,> 20%,"C#CC(NC(=O)c1ncc2c(C)cc(-c3cccc(F)c3)nn12)C(F)(F)F (centres unmarked) [2-(3-Fluorophenyl)-4-methyl-N-(1,1,1-trifluorobut-3-yn-2-yl)imidazo[1,5-b]pyridazine-7-carboxamide]"
5 to 20%,> 20%,Cc1cc(-c2cc(C)c3ncc(C(=O)N[C@@H](C4CC4)C(F)(F)F)n3n2)sn1
